Key:
[1] = system: MSSP (Methicillin-Susceptible Staphylococcus pseudintermedius); test: MIC against selected strains of MSSP; assay type: cell-based; set-up: key to MIC MSSP 84658 / MIC MSSP 86000 / MIC MSSP 71990 / MIC MSSP 72036 / MIC MSSP 78032: MIC in μM; key to MIC MSSP 86001 / MIC MSSP 72191 / MIC MSSP 76986 / MIC MSSP 77378: MIC in μM (first well with no visible growth); MIC MSSP 49051 / MIC MSSP 81923 / MIC MSSP 84250 / Effect on MSSP 86000 / Effect on MSSP 72036 / Effect on MSSP 78032: unit not given beside the values; conditions: for MIC MSSP 49051: strain 49051, Table 3; for MIC MSSP 71990: strain 71990, Table 3; for MIC MSSP 72036: strain 72036, Table 3; for MIC MSSP 72191: strain 72191, Table 3; for MIC MSSP 76986: strain 76986, Table 3; for MIC MSSP 77378: strain 77378, Table 3; for MIC MSSP 78032: strain 78032, Table 3; for MIC MSSP 81923: strain 81923, Table 3; for MIC MSSP 84250: strain 84250, Table 3; for MIC MSSP 84658: strain 84658, Table 3; for MIC MSSP 86000: strain 86000, Table 3; for MIC MSSP 86001: strain 86001, Table 3
Procedure: (§1) Peptides according to SEQ ID NOs as listed in Table 1 were prepared by a commercial manufacturer (CS Bio, Menlo Park, Calif.) using solid phase synthesis. Antimicrobial activity was assessed by determining the Minimal Inhibitory Concentration (MIC) against S. aureus and E. coli. Briefly, Microbroth MICs were performed using CLSI methodology (VET01-S2). For S. aureus and E. coli ATCC strains, TSA with 5% lysed horse blood agar was used for overnight culturing at 37° C. ambient air. A 0.5 mM stock for each peptide was made with cell culture water, 0.01% acetic acid and serially diluted and spotted (10 μL) in a 96-well plate for in assay dose titration concentration of 50 μM to 0.05 μM. 0.5 McFarland Standard of each strain was diluted 1:250 in Mueller-Hinton Broth (MHB). 90 μL of culture suspension was then added upon drug in the 96-well plate for overnight incubation for 18-20 hours. The MIC was determined visually at the first well of no visible growth at the corresponding concentration.
(§2) Antimicrobial activity of the peptides listed in Table 2 against different strains of MSSP (Methicillin-Susceptible Staphylococcus pseudintermedius) and MRSP (Methicillin-Resistant Staphylococcus pseudintermedius) was further assessed. The results are in Tables 3 and 4, respectively.

[2] = system: MRSP (Methicillin-Resistant Staphylococcus pseudintermedius); test: MIC against selected strains of MRSP; assay type: cell-based; set-up: key to MIC MRSP 88493 / MIC MRSP 72035 / MIC MRSP 81926: MIC in μM; key to MIC MRSP 71994 / MIC MRSP 79882 / MIC MRSP 80729 / MIC MRSP 86002: MIC in μM (first well with no visible growth); key to MIC MRSP 72192 / MIC MRSP 76923 / MR 71994 / Mr 88493 / MR 72035 / MR 72192 / MR 76923 / MR 79882 / MR 80279 / MR 81926 / MR 86002 / MR 87665: MIC in μM (visual, first well with no growth); MIC MRSP 87655: unit not given beside the values; conditions: for MIC MRSP 71994: strain 71994, Table 4; for MIC MRSP 72035: strain 72035, Table 4; for MIC MRSP 72192: strain 72192, Table 4; for MIC MRSP 76923: strain 76923, Table 4; for MIC MRSP 79882: strain 79882, Table 4; for MIC MRSP 80729: strain 80729, Table 4; for MIC MRSP 81926: strain 81926, Table 4; for MIC MRSP 86002: strain 86002, Table 4; for MIC MRSP 87655: strain 87655, Table 4; for MIC MRSP 88493: strain 88493, Table 4
Procedure: as §1, §2

[3] = system: Canine-derived epithelial keratinocyte (CPEK) cells; assay type: cell-based
Procedure: Safety of the peptides listed in table 2 was determining by measuring cell viability. Canine-derived epithelial keratinocyte (CPEK) cells were propagated to determine cell viability in the presence of peptides. Cells were grown from a frozen stock in CnT-09-5 (with supplements) pre-warmed media in a T75 flask and incubated overnight at 37° C., 5% CO2. Cells were washed with phosphate buffer and replenished with pre-warmed CnT-05-9 media and repeated for several days until cells reached a density of 6.6×10^4 cells/mL. Cells were then transferred to a 384 well plate, allowed to settle and dosed with peptides and melittin control peptide (50 μM to 0.05 μM) and incubated overnight at 37° C., 5% CO2. 0.1% TritonX100 as (HPE) and phosphate buffer alone as (ZPE) were added to the plates to calculate percent effect once the assay was terminated with 10 μL CELLTITER-GLO® assay reagents for a luminescent readout.

cRBC = assay type: cell-based, canine
Procedure: SEQ ID NO: 1 was selected for further research. Toxicity of SEQ ID NO: 1 to eukaryotic blood cells was compared to that of tachyplesin (SEQ ID NO: 13). A standard, well referenced red blood cell hemolysis assay was employed against multiple species to test the lysis potential of the peptides. Red blood cells (RBCs) were prepared and isolated by several centrifuge and wash steps to remove the plasma fraction. A dose titration (50 μM to 0.05 μM) of test peptides and control peptide melittin were spotted from 50 mM stocks in a 384 well plate. Prepared RBCs were incubated with peptide for one hour at 37° C. Percent hemolysis was measured by optical density at 405 nm and utilizing 1% TritonX100 as hundred percent effect (HPE) and phosphate buffer alone as zero percent effect (ZPE).

1 (KWCFRVCYRGICYRRCRD; Antimicrobial peptide) [compound 1]
1.6: MIC MSSP 49051 [1] | MIC MSSP 71990 [1] | MIC MSSP 72036 [1] | MIC MSSP 72191 [1] | MIC MSSP 76986 [1] | MIC MSSP 77378 [1] | MIC MSSP 78032 [1] | MIC MSSP 81923 [1] | MIC MSSP 84250 [1] | MIC MSSP 84658 [1] | MIC MSSP 86000 [1] | MIC MSSP 86001 [1] | MIC MRSP 71994 [2] | MIC MRSP 72035 [2] | MIC MRSP 72192 [2] | MIC MRSP 76923 [2] | MIC MRSP 79882 [2] | MIC MRSP 80729 [2] | MIC MRSP 81926 [2] | MIC MRSP 86002 [2] | MIC MRSP 87655 [2] | MIC MRSP 88493 [2]
20.5: cRBC (50 μM) (cRBC)
21.5: CPEK (50 μM) [3]

2 (RWCFRVCYRGICYRRCRD; Artificial antimicrobial peptide) [compound 2]
3.1: MIC MSSP 81923 [1] | MIC MSSP 84658 [1]
−1.7: CPEK (50 μM) [3]
1.6: MIC MSSP 49051 [1] | MIC MSSP 71990 [1] | MIC MSSP 72036 [1] | MIC MSSP 72191 [1] | MIC MSSP 76986 [1] | MIC MSSP 77378 [1] | MIC MSSP 78032 [1] | MIC MSSP 84250 [1] | MIC MSSP 86000 [1] | MIC MSSP 86001 [1] | MIC MRSP 71994 [2] | MIC MRSP 72035 [2] | MIC MRSP 72192 [2] | MIC MRSP 76923 [2] | MIC MRSP 80729 [2] | MIC MRSP 81926 [2] | MIC MRSP 86002 [2] | MIC MRSP 87655 [2] | MIC MRSP 88493 [2]
64.0: cRBC (50 μM) (cRBC)
0.8: MIC MRSP 79882 [2]

3 (GWCFRVCYRGICYRRCRD; Artificial Antimicrobial peptide) [compound 3]
1.6: MIC MSSP 49051 [1] | MIC MSSP 71990 [1] | MIC MSSP 72036 [1] | MIC MSSP 72191 [1] | MIC MSSP 76986 [1] | MIC MSSP 78032 [1] | MIC MSSP 81923 [1] | MIC MSSP 84250 [1] | MIC MSSP 84658 [1] | MIC MSSP 86000 [1] | MIC MRSP 71994 [2] | MIC MRSP 72035 [2] | MIC MRSP 72192 [2] | MIC MRSP 76923 [2] | MIC MRSP 80729 [2] | MIC MRSP 81926 [2] | MIC MRSP 86002 [2] | MIC MRSP 87655 [2] | MIC MRSP 88493 [2]
67.1: cRBC (50 μM) (cRBC)
0.4: MIC MSSP 77378 [1]
0.8: MIC MSSP 86001 [1] | MIC MRSP 79882 [2]
42.1: CPEK (50 μM) [3]

4 (KFCFRVCYRGICYRRCRD; Artificial antimicrobial peptide) [compound 4]
1.6: MIC MSSP 49051 [1] | MIC MSSP 71990 [1] | MIC MSSP 81923 [1] | MIC MSSP 84250 [1] | MIC MSSP 84658 [1] | MIC MSSP 86000 [1] | MIC MRSP 71994 [2] | MIC MRSP 72035 [2] | MIC MRSP 72192 [2] | MIC MRSP 86002 [2] | MIC MRSP 87655 [2] | MIC MRSP 88493 [2]
0.8: MIC MSSP 72036 [1] | MIC MSSP 72191 [1] | MIC MSSP 76986 [1] | MIC MSSP 78032 [1] | MIC MSSP 86001 [1] | MIC MRSP 76923 [2] | MIC MRSP 79882 [2] | MIC MRSP 80729 [2] | MIC MRSP 81926 [2]
67.1: cRBC (50 μM) (cRBC)
0.4: MIC MSSP 77378 [1]
16.6: CPEK (50 μM) [3]

5 (KWCFYVCYRGICYRRCRD; Artificial Antimicrobial peptide) [compound 5]
3.1: cRBC (50 μM) (cRBC)
0.8: MIC MSSP 77378 [1]
28.6: CPEK (50 μM) [3]
1.6: MIC MSSP 49051 [1] | MIC MSSP 71990 [1] | MIC MSSP 72036 [1] | MIC MSSP 72191 [1] | MIC MSSP 76986 [1] | MIC MSSP 78032 [1] | MIC MSSP 81923 [1] | MIC MSSP 84250 [1] | MIC MSSP 84658 [1] | MIC MSSP 86000 [1] | MIC MSSP 86001 [1] | MIC MRSP 71994 [2] | MIC MRSP 72035 [2] | MIC MRSP 72192 [2] | MIC MRSP 76923 [2] | MIC MRSP 79882 [2] | MIC MRSP 80729 [2] | MIC MRSP 81926 [2] | MIC MRSP 86002 [2] | MIC MRSP 87655 [2] | MIC MRSP 88493 [2]

6 (KWCFRVCRRGICYRRCRD; Artificial Antimicrobial peptide) [compound 6]
1.6: MIC MSSP 77378 [1]
3.1: MIC MSSP 49051 [1] | MIC MSSP 71990 [1] | MIC MSSP 72036 [1] | MIC MSSP 72191 [1] | MIC MSSP 76986 [1] | MIC MSSP 78032 [1] | MIC MSSP 81923 [1] | MIC MSSP 84250 [1] | MIC MSSP 84658 [1] | MIC MSSP 86000 [1] | MIC MSSP 86001 [1] | MIC MRSP 71994 [2] | MIC MRSP 72035 [2] | MIC MRSP 72192 [2] | MIC MRSP 76923 [2] | MIC MRSP 79882 [2] | MIC MRSP 80729 [2] | MIC MRSP 81926 [2] | MIC MRSP 86002 [2] | MIC MRSP 87655 [2] | MIC MRSP 88493 [2]
4.1: CPEK (50 μM) [3]
1.1: cRBC (50 μM) (cRBC)

7 (KWCFRVCYRGVCYRRCRD; Artificial Antimicrobial peptide) [compound 7]
0.8: MIC MSSP 77378 [1]
1.6: MIC MSSP 49051 [1] | MIC MSSP 71990 [1] | MIC MSSP 72036 [1] | MIC MSSP 72191 [1] | MIC MSSP 76986 [1] | MIC MSSP 78032 [1] | MIC MSSP 81923 [1] | MIC MSSP 84250 [1] | MIC MSSP 84658 [1] | MIC MSSP 86000 [1] | MIC MSSP 86001 [1] | MIC MRSP 71994 [2] | MIC MRSP 72035 [2] | MIC MRSP 72192 [2] | MIC MRSP 76923 [2] | MIC MRSP 79882 [2] | MIC MRSP 80729 [2] | MIC MRSP 81926 [2] | MIC MRSP 86002 [2] | MIC MRSP 87655 [2] | MIC MRSP 88493 [2]
84.1: cRBC (50 μM) (cRBC)
11.3: CPEK (50 μM) [3]
